Read-outs that look alike come from different tables or passages of the source. Marks after values point to notes of the source that are not given here.
Experiments:
[1] = test system: P. berghei NK65 CQ-resistant strain; assay type: in vivo, P. berghei in Swiss mice; conditions: for Activity class against CQ-resistant P. berghei in mice: 25 mg/kg
Protocol: (§1) The protocol for animal use was approved by the Ethics Committee for Animal Use (CEUA LW-23/13) of the Oswaldo Cruz Foundation (Fiocruz). Only Swiss adult female mice (20 ± 2 g weight) were used; they were raised at the animal facilities at FIOCRUZ-Minas.
A P. berghei NK65 CQ-resistant strain maintained at -70°C, selected by increasing doses of CQ, maintained in mice under constant drug pressure (CQ 150 mg/kg) and stored at -70°C was also defrosted and used to inoculate mice. […] The mice were inoculated with 10^7 parasitized RBCs using blood parasites from a donor with parasites resistant to 150 mg/kg of CQ. Groups of five mice each were separated 24 h after the parasite inoculation, then treated orally with the test CQAn at doses of 25 or 50 mg/kg for three consecutive days. Two control groups were used in each experiment; one received CQ at 150 mg/kg and the other was infected but treated with vehicle only (no drugs). The inhibition of parasitaemia was evaluated as described for the mice inoculated with the CQ-sensitive parasites.

[2] = test system: HepG2 cells; assay type: cell-based; conditions: human, 24 h
Protocol: A human hepatoma cell line (HepG2), originally received from the University of Lisbon as a kind gift, was cultured as described. […] When confluent, the cell monolayer was trypsinized, washed with culture medium supplemented with 10% FCS, counted, diluted (5 × 10^3 cells/well), placed in flat-bottom 96-well plates (Corning, Santa Clara, CA, USA), and incubated for 18 h at 37°C to allow cell adhesion. […] After 3 h, the supernatant was discarded, 100 μL of dimethyl sulphoxide (DMSO) was added per well, and the optical density was measured (SpectraMax340PC384, Molecular Devices) at 570 nm (test) and 630 nm (background). Cell viability was expressed as the percentage of the absorbance compared to the absorbance of the untreated cells and subtracted from the appropriate background measurement.

[3] = test system: CQ-R P. falciparum parasites (W2 clone); assay: anti-HRPII test, P. falciparum CQ-R W2 clone in culture; assay type: cell-based, Plasmodium falciparum; conditions: for SI (MLD50/IC50) W2 (CQ-R): MLD50 HepG2 / IC50 W2; for IC50: Plasmodium falciparum
Protocol: (§2) Before tests with the molecules were performed, ring stage parasites were synchronized using sorbitol and the parasitaemia and haematocrit were adjusted; 180 μL/well was added to 96-well microtiter plates (Corning, Santa Clara, CA, USA) containing the diluted compounds tested in triplicate. Drug activity was evaluated in relation to control cultures with no drugs and was measured using the anti-histidine-rich protein II (HRPII) test as described. CQ was used in each test as a control, and two to four experiments were performed for each parasite strain.
(§3) The cultures were added to plates containing the diluted drugs, followed by incubation for 24 h under standard culture conditions. The contents of six wells with no drugs were harvested in each test plate, pooled in microtubes, and frozen for later use to measure the background parasite growth as described. […] Phosphate-buffered saline (PBS) containing 0.05% Tween and 4% bovine serum albumin was used for plate blocking (3 h at room temperature) to avoid nonspecific antibody binding. After 1 h at room temperature, the plate was washed, and 100 μL/well of a secondary antibody solution (MPFG-55P ICLLAB®, USA) was added, followed by incubation with 3,3′,5,5′-tetramethylbenzidine (TMB) chromogen (KPL, Gaithersburg, MD, USA) in the dark. […] The anti-P. falciparum drug activity was evaluated by comparing the parasite growth in the drug-free control cultures, considered 100% growth, with that in the drug test cultures.

[4] = test system: P. berghei NK65 blood parasites (CQ-sensitive); design: method as in de Souza et al. [19]; conditions: 25 mg/kg, adapted from earlier paper, ref de Souza et al. [19], cited from earlier work
[5] = test system: CQ-S P. falciparum parasites (3D7 strain); assay: anti-HRPII test, P. falciparum CQ-S 3D7 strain in culture; assay type: cell-based, Plasmodium falciparum; conditions: for SI (MLD50/IC50) 3D7 (CQ-S): MLD50 HepG2 / IC50 3D7; for IC50: Plasmodium falciparum; for Activity class against CQ-S parasites (3D7): in vitro, class by IC50
Protocol: as §2, §3

[6] = test system: P. berghei NK65 blood parasites (CQ-sensitive); assay: Suppressive test in mice, CQ-sensitive P. berghei; assay type: in vivo, P. berghei in Swiss mice; conditions: for Inhibition of P. berghei parasitaemia, day 5 / Inhibition of P. berghei parasitaemia, day 7: 50 mg/kg dose; for Inhibition of P. berghei parasitaemia, day 5: day 5 after infection; for Inhibition of P. berghei parasitaemia, day 7: day 7 after infection; for Percentage reduction of parasitaemia, CQ-Sensitive, Day 5 / Percentage reduction of parasitaemia, CQ-Sensitive, Day 7: 25 mg/kg oral, four consecutive days, vs non-treated mice; for Percentage reduction of parasitaemia, CQ-Sensitive, Day 5: day 5 after inoculation; for Percentage reduction of parasitaemia, CQ-Sensitive, Day 7: day 7 after inoculation; for Mice surviving the infection at least 30 days after the end of treatment: P. berghei-infected mice, groups of five
Protocol: as §1
The suppressive test was performed as described using the P. berghei NK65 blood parasites, with some modifications. Briefly, the blood parasites were maintained through weekly blood passages in mice. For the experiments, groups of 20–30 mice were inoculated with 1 × 10^5 infected erythrocytes. Approximately three hours later, they were randomly distributed into groups of five to six mice per cage, which were treated daily by gavage for four consecutive days. All the compounds were freshly diluted in 3% DMSO (Sigma-Aldrich) in RPMI medium and were administered orally at doses of 25 mg/kg or 50 mg/kg. The control mice received the drug vehicle. On days 5 and 7 after parasite inoculation, blood was taken from the tail of each mouse and used to prepare thin smears, which were methanol-fixed, Giemsa-stained and examined microscopically to determine parasitaemia.

[7] = test system: β-haematin formation; assay: Inhibition of β-haematin formation assay (lipid catalyst); assay type: biochemical
Protocol: The assay was performed using a lipid as a catalyst to promote crystallization. Briefly, drug stock solutions were prepared in DMSO and were used at a final concentration of up to 30 mM. A haem stock (10 mM) was made in DMSO and was diluted to 50 μM with 100 mM sodium acetate (pH 4.8). […] The plates were incubated at 37°C for 2 h to allow crystallization, followed by the addition of 100 μl of 200 mM sodium bicarbonate (pH 9.1) to solubilize any remaining monomeric haem. After incubation for 30 min at room temperature, the amount of solubilized monomeric haem was determined by measuring the absorbance at 405 nm. Finally, 20 μl of 1 M sodium hydroxide was added to the plates to dissolve any crystals that had been formed, and the absorbance was read at 405 nm to determine the total amount of haem present in each well. The inhibition of haem crystallization was determined as a function of the amount of monomeric haem that was not crystallized divided by the total amount of haem present in the assay mixture. The results are expressed as IC50 values based on the percentage inhibition of β-haematin formation by the CQAn.

[8] = 25 mg/kg (footnote b; head says 50 mg/kg)
[9] = W2, anti-HRPII method, average ± SD of two to four experiments, read-out: Anti-P. falciparum activity (IC50) W2 (CQ-R)
[10] = 3D7, anti-HRPII method, average ± SD of two to four experiments, read-out: Anti-P. falciparum activity (IC50) 3D7 (CQ-S)
[11] = 50 mg/kg oral, three consecutive days
[12] = experiment 1, read-out: Inhibitory concentration of β-haematin formation (IC50), Exp 1
[13] = experiment 2, read-out: Inhibitory concentration of β-haematin formation (IC50), Exp 2
[14] = experiment 3, read-out: Inhibitory concentration of β-haematin formation (IC50), Exp 3

| SMILES | Cytotoxicity MLD50 HepG2 cells [2] [µM] | SI (MLD50/IC50) W2 (CQ-R) [3] | IC50 [3, 9] [µM] | SI (MLD50/IC50) 3D7 (CQ-S) [5] | IC50 [5, 10] [µM] | Activity class against CQ-S parasites (3D7) [5] | Percentage reduction of parasitaemia, CQ-Resistant, Day 5 [1, 11] [%] | Percentage reduction of parasitaemia, CQ-Resistant, Day 7 [1, 11] [%] | Inhibition of P. berghei parasitaemia, day 5 [6] [%] | Inhibition of P. berghei parasitaemia, day 7 [6] [%] | IC50 [7, 12] [µM] | IC50 [7, 13] [µM] | IC50 [7, 14] [µM] | Percentage reduction of parasitaemia, CQ-Sensitive, Day 5 [6] [%] | Percentage reduction of parasitaemia, CQ-Sensitive, Day 7 [6] [%] | other results |
| --- | --- | --- | --- | --- | --- | --- | --- | --- | --- | --- | --- | --- | --- | --- | --- | --- |
| C#CCNCCCNc1ccnc2cc(Cl)ccc12 [CQAn28] | 1508.56 ± 344.50 | 2125 | 0.71 ± 0.03 | 101 | 14.9 ± 3.58 | inactive |  |  |  |  |  |  |  |  |  | Activity class against CQ-resistant P. berghei in mice [1]: inactive; Percentage reduction of parasitaemia, CQ-Resistant, Day 5 [1, 8]: 0^b %; Percentage reduction of parasitaemia, CQ-Sensitive, Day 5 [4]: 94^a %; Percentage reduction of parasitaemia, CQ-Sensitive, Day 7 [4]: 24^a % |
| C#CCNCCCCNc1ccnc2cc(Cl)ccc12 [CQAn33] | 152.89 ± 12.86 | 7645 | 0.02 ± 0.001 | 131 | 1.17 ± 0.1 | partially active (between 1–5 μM as partially active) | 53 | 52 | 100 | 100 | 4700 | 3000 | 5600 |  |  | IC50 compared with that of CQ ([3]; relative to CQ, P. falciparum in vitro): more than 10 fold; Percentage reduction of parasitaemia, CQ-Sensitive, Day 5 [4]: 73^a %; Percentage reduction of parasitaemia, CQ-Sensitive, Day 7 [4]: 57^a %; β-haematin formation IC50 compared with that of CQ ([7]; relative to CQ): similar |
| C#CCNCCNc1ccnc2cc(Cl)ccc12 [CQAn34] | 943.29 ± 73.15 | 4101 | 0.23 ± 0.15 | 3144 | 0.3 ± 0.01 | active |  |  |  |  |  |  |  | 99 | 81 | Activity class against CQ-resistant P. berghei in mice [1]: inactive; Percentage reduction of parasitaemia, CQ-Resistant, Day 5 [1, 8]: 0^b % |
| C#CCN(CC#C)CCNc1ccnc2cc(Cl)ccc12 [CQAn37] | 1699.24 ± 10.07 | 24275 | 0.07 ± 0.03 | 2981 | 0.57 ± 0.24 | active | 47 | 33 | 100 | 100 | 2700 | 10200 | 7500 | 100 | 93 | Mice surviving the infection at least 30 days after the end of treatment [6]: Two of the five |
| C#CCN(CC#C)CCCNc1ccnc2cc(Cl)ccc12 [CQAn39] | ≥3207.08 | 5011 | 0.64 ± 0.29 | 1342 | 2.39 ± 0.11 | partially active (between 1–5 μM as partially active) | 62 | 30 |  |  |  |  |  | 95 | 92 |  |
| C#CCN(CC#C)CCCCNc1ccnc2cc(Cl)ccc12 [CQAn45] | 1015.84 ± 42.97 |  | 0.77 ± 0.21 | 868 | 1.17 | partially active (between 1–5 μM as partially active) | 63 | 51 |  |  |  |  |  | 88 | 50 |  |
| CCN(CC)CCCC(C)Nc1ccnc2cc(Cl)ccc12 (stereo not shown) [Chloroquine, reference compound] |  |  |  |  |  |  |  |  | 100 | 100 | 600 | 2000 | 5000 | 100 | 97 | Mice surviving the infection at least 30 days after the end of treatment [6]: all; IC50 ([3]; W2, read-out: Anti-P. falciparum activity (IC50) W2 (CQ-R)): 0.38 ± 0.03 µM; IC50 ([5]; 3D7, read-out: Anti-P. falciparum activity (IC50) 3D7 (CQ-S)): 0.081 ± 0.019 µM |

Reference: paper PMC4265395 (Malaria Journal, 2014)
